Laboratory results reported in US7417048B2, “Aryl-substituted derivatives of cycloalkyl and branched chain alkyl carboxylic acids useful as antinociceptive drugs for peripheral targets” (priority 2003, dated 2008).

Test system: tongue of the test subject
Experiment: Cold sensation threshold on tongue, impregnated filter paper
Assay type: in vivo, human
Conditions: filter paper 1 × 1 cm on tongue, 30 sec, presence or absence of cooling effect

Row | Structure (SMILES) | Cold Sensation Threshold on Tongue [µg]
1 | COc1ccc(NC(=O)C2C3CCC(C3)C2(C)C)cc1 (centres unmarked) [N-(4′-methoxyphenyl)-3,3-dimethylbicyclo[2.2.1]heptane-2-carboxamide] | 20
2 | Cc1ccc(C)c(NC(=O)C(C)(CC(C)C)C(C)C)c1 (centres unmarked) [N-(2′,5′-dimethylphenyl)-2-isopropyl-2,4-dimethylpentanamide] | 5
3 | CC1CCC(C(C)C)C(C(=O)Nc2cccc3ccccc23)C1 (centres unmarked) [N-(1′-naphthyl)-2-isopropyl-5-methylcyclohexanecarboxamide] | 6
4 | CC1CCC(C(C)C)C(C(=O)Nc2ccccc2)C1 (centres unmarked) [N-phenyl-2-isopropyl-5-methylcyclohexanecarboxamide] | 20
5 | CC1CCC(C(C)C)C(C(=O)Nc2ccc(Cl)cc2)C1 (centres unmarked) [N-(4′-chlorophenyl)-2-isopropyl-5-methylcyclohexanecarboxamide] | 8
6 | Cc1ccc(NC(=O)C2(C(C)C)CCCCCC2)cc1O [N-(3′-hydroxy-4′-methylphenyl)-1-isopropylcycloheptanecarboxamide] | 1
7 | Cc1ccc(C)c(NC(=O)C2C3CCC(C3)C2(C)C)c1 (centres unmarked) [N-(2′,5′-dimethylphenyl)-3,3-dimethylbicyclo[2.2.1]heptane-2-carboxamide] | 20
8 | CC1CCC(C(C)C)C(C(=O)Nc2ccc(F)cc2)C1 (centres unmarked) [N-(4′-fluorophenyl)-2-isopropyl-5-methylcyclohexanecarboxamide] | 0.5
9 | COc1ccc(NC(=O)C2CC(C)CCC2C(C)C)cc1 (centres unmarked) [N-(4′-methoxyphenyl)-2-isopropyl-5-methylcyclohexanecarboxamide] | 0.1
10 | CC1CCC(C(C)C)C(C(=O)NCc2ccccc2)C1 (centres unmarked) [N-phenylmethyl-2-isopropyl-5-methylcyclohexanecarboxamide] | 20
11 | COc1ccc(NC(=O)C2C3CCC(C3)C2C(C)C)cc1 (centres unmarked) [N-(4′-methoxyphenyl)-3-isopropylbicyclo[2.2.1]heptane-2-carboxamide] | 15
12 | Cc1ccc(NC(=O)C(C)(C(C)C)C(C)C)c(C)c1 [N-(2′,4′-dimethylphenyl)-2-isopropyl-2,3-dimethylbutyramide] | 1
13 | COc1ccc(NC(=O)C2C3C=CC(C3)C2CC(C)C)cc1 (centres unmarked) [N-(4′-methoxyphenyl)-3-isobutylbicyclo[2.2.1]hept-5-ene-2-carboxamide] | 4
14 | Cc1ccc(NC(=O)C2(C(C)C)CCCCCC2)cc1C [N-(3′,4′-dimethylphenyl)-1-isopropylcycloheptanecarboxamide] | 15
15 | Cc1ccc(NC(=O)C2CC(C)CCC2C(C)C)cc1O (centres unmarked) [N-(3′-hydroxy-4′-methylphenyl)-2-isopropyl-5-methylcyclohexanecarboxamide] | 0.1
16 | CCCCC1C2C=CC(C2)C1C(=O)Nc1ccc(OC)cc1C (centres unmarked) [N-(2′-methyl-4′-methoxyphenyl)-3-n-butylbicyclo[2.2.1]hept-5-ene-2-carboxamide] | 1
17 | CCCCC1C2C=CC(C2)C1C(=O)Nc1ccc(OC)c(O)c1 (centres unmarked) [N-(3′-hydroxy-4′-methoxyphenyl)-3-n-butylbicyclo[2.2.1]hept-5-ene-2-carboxamide] | 5
18 | COc1ccc(NC(=O)C2C3C=CC(C3)C2CC(C)C)c(C)c1 (centres unmarked) [N-(2′-methyl-4′-methoxyphenyl)-3-isobutylbicyclo[2.2.1]hept-5-ene-2-carboxamide] | 1

Row | Structure (SMILES) | Cold Sensation Threshold on Tongue [µg]
19 | CC(=O)c1ccc(NC(=O)C2CC(C)CCC2C(C)C)cc1 (centres unmarked) [N-(4′-acetylphenyl)-2-isopropyl-5-methylcyclohexanecarboxamide] | 2
20 | CC(C)C1(C(=O)Nc2cccc(O)c2)CCCCCC1 [N-(3′-hydroxyphenyl)-1-isopropylcycloheptanecarboxamide] | 10
21 | COc1ccc(NC(=O)C2CC3CCC2(C)C3(C)C)cc1 (centres unmarked) [N-(4′-methoxyphenyl)-1,7,7-trimethylbicyclo[2.2.1]heptane-2-carboxamide] | 8
22 | CC1CCC(C(C)C)C(C(=O)Nc2ccccc2O)C1 (centres unmarked) [N-(2′-hydroxyphenyl)-2-isopropyl-5-methylcyclohexanecarboxamide] | 0.5
23 | CCC1(C(=O)Nc2ccc(OC)cc2)CCCCCC1C (centres unmarked) [N-(4′-methoxyphenyl)-1-ethyl-2-methylcycloheptanecarboxamide] | 6
24 | Cc1ccc(NC(=O)C2CC(C)CCC2C(C)C)c(C)c1 (centres unmarked) [N-(2′,4′-dimethylphenyl)-2-isopropyl-5-methylcyclohexanecarboxamide] | 0.1
25 | COc1ccc(NC(=O)C2C3C=CC(C3)C2CC(C)C)cc1O (centres unmarked) [N-(3′-hydroxy-4′-methoxyphenyl)-3-isobutylbicyclo[2.2.1]hept-5-ene-2-carboxamide] | 8
26 | CCOC(=O)c1ccc(NC(=O)C2CC(C)CCC2C(C)C)cc1 (centres unmarked) [N-(4′-ethoxycarbonylphenyl)-2-isopropyl-5-methylcyclohexanecarboxamide] | 5
27 | Cc1ccc(NC(=O)C(C)(C(C)C)C(C)C)cc1C [N-(3′,4′-dimethylphenyl)-2-isopropyl-2,3-dimethylbutyramide] | 3
28 | COc1ccc(NC(=O)C2(C(C)C)CCCCCC2)c(C)c1 [N-(4′-methoxy-2′-methylphenyl)-1-isopropylcycloheptanecarboxamide] | 0.2
29 | COc1ccc(NC(=O)C2C3C=CC(C3)C2CC(C)C)c(OC)c1 (centres unmarked) [N-(2′,4′-dimethoxyphenyl)-3-isobutylbicyclo[2.2.1]hept-5-ene-2-carboxamide] | 1
30 | COc1ccc(NC(=O)C(C)(C(C)C)C(C)C)cc1 [N-(4′-methoxyphenyl)-2-isopropyl-2,3-dimethylbutyramide] | 0.5
31 | CC1CCC(C(C)C)C(C(=O)Nc2ccc(O)cc2)C1 (centres unmarked) [N-(4′-hydroxyphenyl)-2-isopropyl-5-methylcyclohexanecarboxamide] | 1
32 | Cc1ccc(NC(=O)C2(C(C)C)CCCCCC2)c(C)c1 [N-(2′,4′-dimethylphenyl)-1-isopropylcycloheptanecarboxamide] | 15
33 | COc1ccc(NC(=O)C(C)(CC(C)C)C(C)C)cc1 (centres unmarked) [N-(4′-methoxyphenyl)-2-isopropyl-2,4-dimethylpentanamide] | 2
34 | CC1CCC(C(C)C)C(C(=O)Nc2ccc([N+](=O)[O-])cc2)C1 (centres unmarked) [N-(4′-nitrophenyl)-2-isopropyl-5-methylcyclohexanecarboxamide] | 0.3
35 | COc1ccc(NC(=O)C2(C(C)C)CCCCCC2)cc1OC [N-(3′,4′-dimethoxyphenyl)-1-isopropylcycloheptanecarboxamide] | 5
